Test results published in US20110039721A1, “METHOD FOR PREDICTION ABOUT CARCINOGENICITY OF SUBSTANCE IN RODENT” (Chemicals Evaluation and Research Institute, priority 2007, published 2011).
Where two headings read alike, the source gives them in different places.

Legend:
[1] = system: mRNA expressed from the genes (A) to (D) in rat liver; test: Behavior of genes (mRNA expression level, oligo-DNA microarray) in rat liver after 28-day oral administration; assay type: in vivo; conditions: for Behavior of gene caused by administration of chemical substance, Gene No. 4846 / Behavior of gene caused by administration of chemical substance, Gene No. 2026 / Behavior of gene caused by administration of chemical substance, Gene No. 4218 / Behavior of gene caused by administration of chemical substance, Gene No. 6182 / Behavior of gene caused by administration of chemical substance, Gene No. 5600: gene group (A); for Behavior of gene caused by administration of chemical substance, Gene No. 4846: Unigene No. Rn.144554; for Behavior of gene caused by administration of chemical substance, Gene No. 2026 / Behavior of gene caused by administration of chemical substance, Gene No. 4218: Unigene No. Rn.167075; for Behavior of gene caused by administration of chemical substance, Gene No. 6182: Unigene No. Rn.5834; for Behavior of gene caused by administration of chemical substance, Gene No. 5600: Unigene No. Rn.9836; for Behavior of gene caused by administration of chemical substance, Gene No. 1494 / Behavior of gene caused by administration of chemical substance, Gene No. 2045 / Behavior of gene caused by administration of chemical substance, Gene No. 2203: gene group (B); for Behavior of gene caused by administration of chemical substance, Gene No. 1494: Unigene No. Rn.1430; for Behavior of gene caused by administration of chemical substance, Gene No. 2045: Unigene No. Rn.19329; for Behavior of gene caused by administration of chemical substance, Gene No. 2203: Unigene No. Rn.21240; for Behavior of gene caused by administration of chemical substance, Gene No. 533 / Behavior of gene caused by administration of chemical substance, Gene No. 725 / Behavior of gene caused by administration of chemical substance, Gene No. 1163 / Behavior of gene caused by administration of chemical substance, Gene No. 4973 / Behavior of gene caused by administration of chemical substance, Gene No. 4095 / Behavior of gene caused by administration of chemical substance, Gene No. 1334 / Behavior of gene caused by administration of chemical substance, Gene No. 6620 / Behavior of gene caused by administration of chemical substance, Gene No. 6303 / Behavior of gene caused by administration of chemical substance, Gene No. 5878 / Behavior of gene caused by administration of chemical substance, Gene No. 1131 / Behavior of gene caused by administration of chemical substance, Gene No. 1562 / Behavior of gene caused by administration of chemical substance, Gene No. 1741 / Behavior of gene caused by administration of chemical substance, Gene No. 893 / Behavior of gene caused by administration of chemical substance, Gene No. 6026 / Behavior of gene caused by administration of chemical substance, Gene No. 154 / Behavior of gene caused by administration of chemical substance, Gene No. 1993 / Behavior of gene caused by administration of chemical substance, Gene No. 813 / Behavior of gene caused by administration of chemical substance, Gene No. 2494 / Behavior of gene caused by administration of chemical substance, Gene No. 2546 / Behavior of gene caused by administration of chemical substance, Gene No. 3776 / Behavior of gene caused by administration of chemical substance, Gene No. 3929 / Behavior of gene caused by administration of chemical substance, Gene No. 1119 / Behavior of gene caused by administration of chemical substance, Gene No. 6742 / Behavior of gene caused by administration of chemical substance, Gene No. 5634: gene group (C); for Behavior of gene caused by administration of chemical substance, Gene No. 533: Unigene No. Rn.106184; for Behavior of gene caused by administration of chemical substance, Gene No. 725: Unigene No. Rn.108075; for Behavior of gene caused by administration of chemical substance, Gene No. 1163: Unigene No. Rn.11766; for Behavior of gene caused by administration of chemical substance, Gene No. 4973: Unigene No. Rn.118529; for Behavior of gene caused by administration of chemical substance, Gene No. 4095: Unigene No. Rn.119024; for Behavior of gene caused by administration of chemical substance, Gene No. 1334 / Behavior of gene caused by administration of chemical substance, Gene No. 6620: Unigene No. Rn.120914; for Behavior of gene caused by administration of chemical substance, Gene No. 6303: Unigene No. Rn.123063; for Behavior of gene caused by administration of chemical substance, Gene No. 5878: Unigene No. Rn.143213; for Behavior of gene caused by administration of chemical substance, Gene No. 1131: Unigene No. Rn.144946; for Behavior of gene caused by administration of chemical substance, Gene No. 1562: Unigene No. Rn.14744; for Behavior of gene caused by administration of chemical substance, Gene No. 1741: Unigene No. Rn.1647; for Behavior of gene caused by administration of chemical substance, Gene No. 893: Unigene No. Rn.164817; for Behavior of gene caused by administration of chemical substance, Gene No. 6026: Unigene No. Rn.167685; for Behavior of gene caused by administration of chemical substance, Gene No. 154: Unigene No. Rn.185941; for Behavior of gene caused by administration of chemical substance, Gene No. 1993: Unigene No. Rn.18728; for Behavior of gene caused by administration of chemical substance, Gene No. 813: Unigene No. Rn.201760; for Behavior of gene caused by administration of chemical substance, Gene No. 2494: Unigene No. Rn.23969; for Behavior of gene caused by administration of chemical substance, Gene No. 2546: Unigene No. Rn.24561; for Behavior of gene caused by administration of chemical substance, Gene No. 3776: Unigene No. Rn.43232; for Behavior of gene caused by administration of chemical substance, Gene No. 3929: Unigene No. Rn.4620; for Behavior of gene caused by administration of chemical substance, Gene No. 1119: Unigene No. Rn.9757; for Behavior of gene caused by administration of chemical substance, Gene No. 6742: Unigene No. Rn.9779; for Behavior of gene caused by administration of chemical substance, Gene No. 5634: Unigene No. Rn.9862; for Behavior of gene caused by administration of chemical substance, Gene No. 5726: gene group (D), Unigene No. Rn.9939
How it was run: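 Liver mRNA measured by oligo-DNA microarray after 28 days of once-daily oral gavage in 5-week-old male F344 rats (n=4 per group), with vehicle controls given equal solvent volume. Significance threshold: 1.5-fold up or down versus control, with changes opposite in direction to other carcinogens counted as not significant.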

rodent = conditions: classification of the substance (C+/C−); cited from earlier work
[2] = classification of the substance (M+/M−); cited from earlier work
liver = conditions: cited from earlier work

Row | SMILES | Behavior of gene caused by administration of chemical substance, Gene No. 4846 [1] | Behavior of gene caused by administration of chemical substance, Gene No. 2026 [1] | Behavior of gene caused by administration of chemical substance, Gene No. 4218 [1] | Behavior of gene caused by administration of chemical substance, Gene No. 6182 [1] | Behavior of gene caused by administration of chemical substance, Gene No. 5600 [1] | Behavior of gene caused by administration of chemical substance, Gene No. 1494 [1] | Behavior of gene caused by administration of chemical substance, Gene No. 2045 [1] | Behavior of gene caused by administration of chemical substance, Gene No. 2203 [1] | Behavior of gene caused by administration of chemical substance, Gene No. 533 [1] | Behavior of gene caused by administration of chemical substance, Gene No. 725 [1] | Behavior of gene caused by administration of chemical substance, Gene No. 1163 [1] | Behavior of gene caused by administration of chemical substance, Gene No. 4973 [1] | Behavior of gene caused by administration of chemical substance, Gene No. 4095 [1] | Behavior of gene caused by administration of chemical substance, Gene No. 1334 [1] | Behavior of gene caused by administration of chemical substance, Gene No. 6620 [1] | Behavior of gene caused by administration of chemical substance, Gene No. 6303 [1] | Behavior of gene caused by administration of chemical substance, Gene No. 5878 [1] | Behavior of gene caused by administration of chemical substance, Gene No. 1131 [1] | Behavior of gene caused by administration of chemical substance, Gene No. 1562 [1] | Behavior of gene caused by administration of chemical substance, Gene No. 1741 [1] | other results
1 | Cl.ClCc1ccccn1 [TS033, 2-Chloromethylpyridine HCl] | − | − | − | − | − | − | − | − | − | − | − | − | − | − | − | − | − | − | − | − | Behavior of gene caused by administration of chemical substance, Gene No. 893 [1]: −; Behavior of gene caused by administration of chemical substance, Gene No. 6026 [1]: −; Behavior of gene caused by administration of chemical substance, Gene No. 154 [1]: −; Behavior of gene caused by administration of chemical substance, Gene No. 1993 [1]: −; Behavior of gene caused by administration of chemical substance, Gene No. 813 [1]: −; Behavior of gene caused by administration of chemical substance, Gene No. 2494 [1]: −; Behavior of gene caused by administration of chemical substance, Gene No. 2546 [1]: −; Behavior of gene caused by administration of chemical substance, Gene No. 3776 [1]: −; Behavior of gene caused by administration of chemical substance, Gene No. 3929 [1]: −; Behavior of gene caused by administration of chemical substance, Gene No. 1119 [1]: −; Behavior of gene caused by administration of chemical substance, Gene No. 6742 [1]: −; Behavior of gene caused by administration of chemical substance, Gene No. 5634 [1]: −; Behavior of gene caused by administration of chemical substance, Gene No. 5726 [1]: −; Carcinogenicity (rodent): C−; Mutagenicity by Ames test [2]: M+; Liver carcinogenicity (liver; classification of the substance (Cr+/Cr−)): Cr−
2 | Nc1ccc([N+](=O)[O-])cc1N [TS035, 4-Nitro-o-phenylenediamine] | − | + | − | − | − | + | − | − | + | + | + | − | − | + | + | + | − | − | − | + | Behavior of gene caused by administration of chemical substance, Gene No. 893 [1]: −; Behavior of gene caused by administration of chemical substance, Gene No. 6026 [1]: −; Behavior of gene caused by administration of chemical substance, Gene No. 154 [1]: −; Behavior of gene caused by administration of chemical substance, Gene No. 1993 [1]: +; Behavior of gene caused by administration of chemical substance, Gene No. 813 [1]: +; Behavior of gene caused by administration of chemical substance, Gene No. 2494 [1]: −; Behavior of gene caused by administration of chemical substance, Gene No. 2546 [1]: +; Behavior of gene caused by administration of chemical substance, Gene No. 3776 [1]: −; Behavior of gene caused by administration of chemical substance, Gene No. 3929 [1]: −; Behavior of gene caused by administration of chemical substance, Gene No. 1119 [1]: −; Behavior of gene caused by administration of chemical substance, Gene No. 6742 [1]: −; Behavior of gene caused by administration of chemical substance, Gene No. 5634 [1]: +; Behavior of gene caused by administration of chemical substance, Gene No. 5726 [1]: −; Carcinogenicity (rodent): C−; Mutagenicity by Ames test [2]: M+; Liver carcinogenicity (liver; in vivo): Cr−
